Laboratory results as given in US9346812B2, “Substituted pyrrolopyrimidine compounds, compositions thereof, and methods of treatment therewith” (Signal Pharmaceutical LLC, priority 2013, dated 2016).
Like-named read-outs stand apart in the source and are kept apart here.

System: CAL51 cell proliferation
Assay: Cell Titer Glo Proliferation Assay (CAL51)
Type: cell-based, human
Conditions: Homo sapiens, read-out: Act. Level
Protocol: Cell Titer Glo Proliferation Assay. Triple negative breast cancer cell line CAL51 was purchased from DSMZ. […] Allcell lines were maintained in growth media consisting of 90% high glucose Dulbecco's Modified Eagle Medium or RPMI1640 (Invitrogen), 10% fetal bovine serum (Hyclone), and 2 mM L-glutamine (Invitrogen). […] After overnight culture, compound stock (30 mM) was diluted serially in DMSO, further diluted in growth media, and was added to each well as a 10× concentrated solution in a volume of 11 μL, mixed, and allowed to incubate with cells. The compound vehicle (DMSO) was maintained at a final concentration of 0.2% in all wells. After 72 h, 100 μL of Cell Titer Glo solution (Promega) was added to each well of the 96-well plate. The plate was placed on a shaker for 2 minutes. After 10 minutes incubation, the luminescence signal was detected with Envision microplate reader (Perkin Elmer).

[1] = CAL-51, CAL51 cell proliferation, 72 h, Cell Titer Glo luminescence

## CNC(=O)c1ccc(Nc2nc(OC3CCCC3)c3c(-c4ccc(O)cc4)c[nH]c3n2)cc1 [Example 1, 4-(4-(cyclopentyloxy)-5-(4-hydroxyphenyl)-7H-pyrrolo[2,3-d]pyrimidin-2-ylamino)-N-methylbenzamide]
CAL-51, 72 h
  IC50: < 100 nM

## CNC(=O)c1ccc(Nc2nc(OC3CCCC3)c3c(-c4ccc(O)cc4)c[nH]c3n2)c(C)c1 [Example 9]
[1]
  IC50: < 100 nM

## CNC(=O)c1ccc(Nc2nc(OC3CCCC3)c3c(-c4ccc(O)cc4)c[nH]c3n2)c(F)c1 [Example 15, 4-(4-(cyclopentyloxy)-5-(4-hydroxyphenyl)-7H-pyrrolo[2,3-d]pyrimidin-2-ylamino)-3-fluoro-N-methylbenzamide]
[1]
  IC50: < 100 nM

## CNC(=O)c1ccc(Nc2nc(OC3CCCC3)c3c(-c4ccc(CO)cc4)c[nH]c3n2)c(OC)c1 [Example 23, 4-(4-(cyclopentyloxy)-5-(4-(hydroxymethyl)phenyl)-7H-pyrrolo[2,3-d]pyrimidin-2-ylamino)-3-methoxy-N-methylbenzamide]
[1]
  IC50: 100 to 400 nM

## CNC(=O)c1ccc(Nc2nc(OC3CCCC3)c3c(-c4ccc(O)c(Cl)c4)c[nH]c3n2)c(OC)c1 [Example 24, 4-(5-(3-chloro-4-hydroxyphenyl)-4-(cyclopentyloxy)-7H-pyrrolo[2,3-d]pyrimidin-2-ylamino)-3-methoxy-N-methylbenzamide]
[1]
  IC50: < 100 nM

## CNC(=O)c1ccc(Nc2nc(OC3CCCC3)c3c(-c4ccc5cn[nH]c5c4)c[nH]c3n2)c(OC)c1 [Example 25, 4-(4-(cyclopentyloxy)-5-(1H-indazol-6-yl)-7H-pyrrolo[2,3-d]pyrimidin-2-ylamino)-3-methoxy-N-methylbenzamide]
[1]
  IC50: 100 to 400 nM

## CNC(=O)c1ccc(Nc2nc(OC3CCCC3)c3c(-c4cccc(CO)c4)c[nH]c3n2)c(OC)c1 [Example 26, 4-(4-(cyclopentyloxy)-5-(3-(hydroxymethyl)phenyl)-7H-pyrrolo[2,3-d]pyrimidin-2-ylamino)-3-methoxy-N-methylbenzamide]
[1]
  IC50: < 100 nM

## CNC(=O)c1ccc(Nc2nc(OC3CCCC3)c3c(-c4ccc5nn[nH]c5c4)c[nH]c3n2)c(OC)c1 [Example 27, 4-(5-(1H-benzo[d][1,2,3]triazol-6-yl)-4-(cyclopentyloxy)-7H-pyrrolo [2,3-d]pyrimidin-2-ylamino)-3-methoxy-N-methylbenzamide]
[1]
  IC50: < 100 nM

## CNC(=O)c1ccc(Nc2nc(OC3CCCC3)c3c(-c4ccc(-c5nnc[nH]5)cc4)c[nH]c3n2)c(OC)c1 [Example 28, 4-(5-(4-(4H-1,2,4-triazol-3-yl)phenyl)-4-(cyclopentyloxy)-7H-pyrrolo[2,3-d]pyrimidin-2-ylamino)-3-methoxy-N-methylbenzamide]
[1]
  IC50: < 100 nM

## CNC(=O)c1ccc(Nc2nc(OC3CCOCC3)c3c(-c4ccc(O)cc4)c[nH]c3n2)c(Cl)c1 [Example 29, 3-chloro-4-(5-(4-hydroxyphenyl)-4-(tetrahydro-2H-pyran-4-yloxy)-7H-pyrrolo[2,3-d]pyrimidin-2-ylamino)-N-methylbenzamide]
[1]
  IC50: < 100 nM

## CNC(=O)c1ccc(Nc2nc(OC3CCCC3)c3c(-c4ccc5nc[nH]c5c4)c[nH]c3n2)c(OC)c1 [Example 30, 4-(5-(1H-benzo[d]imidazol-6-yl)-4-(cyclopentyloxy)-7H-pyrrolo[2,3-d]pyrimidin-2-ylamino)-3-methoxy-N-methylbenzamide]
[1]
  IC50: < 100 nM

## COc1cc(C(=O)N(C)C)ccc1Nc1nc(OC2CCCC2)c2c(-c3ccc(O)cc3)c[nH]c2n1 [Example 31, 4-(4-(cyclopentyloxy)-5-(4-hydroxyphenyl)-7H-pyrrolo[2,3-d]pyrimidin-2-ylamino)-3-methoxy-N,N-dimethylbenzamide]
[1]
  IC50: < 100 nM

## CNC(=O)c1ccc(Nc2nc(OC3CCCC3)c3c(-c4ccc(NS(C)(=O)=O)cc4)c[nH]c3n2)c(OC)c1 [Example 32, 4-(4-(cyclopentyloxy)-5-(4-(methylsulfonamido)phenyl)-7H-pyrrolo[2,3-d]pyrimidin-2-ylamino)-3-methoxy-N-methylbenzamide]
[1]
  IC50: < 100 nM

## CNC(=O)c1ccc(Nc2nc(OC3CCCC3)c3c(-c4ccc(O)c(C#N)c4)c[nH]c3n2)c(OC)c1 [Example 33, 4-(5-(3-cyano-4-hydroxyphenyl)-4-(cyclopentyloxy)-7H-pyrrolo[2,3-d]pyrimidin-2-ylamino)-3-methoxy-N-methylbenzamide]
[1]
  IC50: < 100 nM

## CNC(=O)c1ccc(Nc2nc(OC3CCCC3)c3c(-c4cncc(OC)c4)c[nH]c3n2)c(Cl)c1 [Example 34, 3-chloro-4-(4-(cyclopentyloxy)-5-(5-methoxypyridin-3-yl)-7H-pyrrolo [2,3-d]pyrimidin-2-ylamino)-N-methylbenzamide]
[1]
  IC50: 100 to 400 nM

## CNC(=O)c1ccc(Nc2nc(OC3CCCC3)c3c(-c4ccc5oc(C)nc5c4)c[nH]c3n2)c(OC)c1 [Example 35, 4-(4-(cyclopentyloxy)-5-(2-methylbenzo[d]oxazol-5-yl)-7H-pyrrolo[2,3-d]pyrimidin-2-ylamino)-3-methoxy-N-methylbenzamide]
[1]
  IC50: 1000 to 10000 nM

## CNC(=O)c1ccc(Nc2nc(NC3CCCCC3)c3c(-c4ccc(O)cc4)c[nH]c3n2)c(OC)c1 [Example 36, 4-(4-(cyclohexylamino)-5-(4-hydroxyphenyl)-7H-pyrrolo[2,3-d]pyrimidin-2-ylamino)-3-methoxy-N-methylbenzamide]
[1]
  IC50: < 100 nM

## CNC(=O)c1ccc(Nc2nc(OC3CCCC3)c3c(-c4ccc(N)cc4)c[nH]c3n2)c(OC)c1 [Example 37, 4-(5-(4-aminophenyl)-4-(cyclopentyloxy)-7H-pyrrolo[2,3-d]pyrimidin-2-ylamino)-3-methoxy-N-methylbenzamide]
[1]
  IC50: < 100 nM

## CNC(=O)c1ccc(Nc2nc(OC3CCCC3)c3c(-c4ccc(NC(N)=O)cc4)c[nH]c3n2)c(OC)c1 [Example 39, 4-(4-(cyclopentyloxy)-5-(4-ureidophenyl)-7H-pyrrolo[2,3-d]pyrimidin-2-ylamino)-3-methoxy-N-methylbenzamide]
[1]
  IC50: < 100 nM

## CNC(=O)c1ccc(Nc2nc(NC3CCOCC3)c3c(-c4ccc(O)cc4)c[nH]c3n2)c(OC)c1 [Example 40, 4-(5-(4-hydroxyphenyl)-4-(tetrahydro-2H-pyran-4-ylamino)-7H-pyrrolo[2,3-d]pyrimidin-2-ylamino)-3-methoxy-N-methylbenzamide]
[1]
  IC50: < 100 nM

## CNC(=O)c1ccc(Nc2nc(OC3CCCC3)c3c(-c4ccc(-c5ccn[nH]5)cc4)c[nH]c3n2)c(OC)c1 [Example 41, 4-(5-(4-(1H-pyrazol-5-yl)phenyl)-4-(cyclopentyloxy)-7H-pyrrolo[2,3-d]pyrimidin-2-ylamino)-3-methoxy-N-methylbenzamide]
[1]
  IC50: 100 to 400 nM

## CNC(=O)c1ccc(Nc2nc(OC3CCCC3)c3c(-c4ccc(O)c(F)c4)c[nH]c3n2)c(OC)c1 [Example 42, 4-(4-(cyclopentyloxy)-5-(3-fluoro-4-hydroxyphenyl)-7H-pyrrolo[2,3-d]pyrimidin-2-ylamino)-3-methoxy-N-methylbenzamide]
[1]
  IC50: < 100 nM

## CNC(=O)c1ccc(Nc2nc(OC3CCCC3)c3c(-c4ccc(O)c(C)c4)c[nH]c3n2)c(OC)c1 [Example 43, 4-(4-(cyclopentyloxy)-5-(4-hydroxy-3-methylphenyl)-7H-pyrrolo[2,3-d]pyrimidin-2-ylamino)-3-methoxy-N-methylbenzamide]
[1]
  IC50: < 100 nM

## COc1cc(C(N)=O)ccc1Nc1nc(OC2CCCC2)c2c(-c3ccc(O)cc3)c[nH]c2n1 [Example 44, 4-(4-(cyclopentyloxy)-5-(4-hydroxyphenyl)-7H-pyrrolo[2,3-d]pyrimidin-2-ylamino)-3-methoxybenzamide]
[1]
  IC50: < 100 nM

## CNC(=O)c1ccc(Nc2nc(O[C@H]3CC[C@H](O)CC3)c3c(-c4ccc(O)cc4)c[nH]c3n2)c(OC)c1 [Example 45, 4-(4-((1r,4R)-4-hydroxycyclo-hexyloxy)-5-(4-hydroxyphenyl)-7H-pyrrolo[2,3-d]pyrimidin-2-ylamino)-3-methoxy-N-methylbenzamide]
[1]
  IC50: < 100 nM

## CNC(=O)c1ccc(Nc2nc(O[C@H]3CC[C@@H](O)CC3)c3c(-c4ccc(O)cc4)c[nH]c3n2)c(OC)c1 [Example 46, 4-(4-((1s,4s)-4-hydroxycyclo-hexyloxy)-5-(4-hydroxyphenyl)-7H-pyrrolo[2,3-d]pyrimidin-2-ylamino)-3-methoxy-N-methylbenzamide]
[1]
  IC50: < 100 nM

## CNC(=O)c1ccc(Nc2nc(OC3CCCC3)c3c(-c4cccc(C(C)(C)O)c4)c[nH]c3n2)c(OC)c1 [Example 47, 4-(4-(cyclopentyloxy)-5-(3-(2-hydroxypropan-2-yl)phenyl)-7H-pyrrolo[2,3-d]pyrimidin-2-ylamino)-3-methoxy-N-methylbenzamide]
[1]
  IC50: 400 to 1000 nM

## CNC(=O)c1ccc(Nc2nc(OC3CCCC3)c3c(-c4ccc(-c5ncc[nH]5)cc4)c[nH]c3n2)c(OC)c1 [Example 48, 4-(5-(4-(1H-imidazol-2-yl)phenyl)-4-(cyclopentyloxy)-7H-pyrrolo[2,3-d]pyrimidin-2-ylamino)-3-methoxy-N-methylbenzamide]
[1]
  IC50: < 100 nM

## CNC(=O)c1ccc(Nc2nc(OC3CCCC3)c3c(-c4ccc(C(C)(C)O)cc4)c[nH]c3n2)c(OC)c1 [Example 49, 4-(4-(cyclopentyloxy)-5-(4-(2-hydroxypropan-2-yl)phenyl)-7H-pyrrolo[2,3-d]pyrimidin-2-ylamino)-3-methoxy-N-methylbenzamide]
[1]
  IC50: 100 to 400 nM

## COc1cc(-c2cn[nH]c2)ccc1Nc1nc(OC2CCCC2)c2c(-c3ccc(O)cc3)c[nH]c2n1 [Example 50, 4-(4-(cyclopentyloxy)-2-(2-methoxy-4-(1H-pyrazol-4-yl)phenylamino)-7H-pyrrolo[2,3-d]pyrimidin-5-yl) phenol]
[1]
  IC50: < 100 nM
